From US20170334899A1, “AMINO-SUBSTITUTED ISOTHIAZOLES” (Bayer Pharma Aktiengesellschaft, priority 2014, published 2017)

Key:
Format in all cases: cell-based
[1] = tested on: HeLa-MaTu-ADR; experiment: Proliferation assay (crystal violet), HeLa-MaTu-ADR; conditions: 96 h; HeLa-MaTu-ADR cells; 4 days incubation; crystal violet staining; read-out: IC50 inhibition of proliferation, HeLa-MaTu-ADR
Method: (§1) Cultivated tumor cells (cells were ordered from ATCC, except HeLa-MaTu and HeLa-MaTu-ADR, which were ordered from EPO-GmbH, Berlin) were plated at a density of 1000 to 5000 cells/well, depending on the growth rate of the respective cell line, in a 96-well multititer plate in 200 μL of their respective growth medium supplemented 10% fetal calf serum. After 24 hours, the cells of one plate (zero-point plate) were stained with crystal violet (see below), while the medium of the other plates was replaced by fresh culture medium (200 μl), to which the test substances were added in various concentrations (0 μM, as well as in the range of 0.001-10 μM; the final concentration of the solvent dimethyl sulfoxide was 0.5%). The cells were incubated for 4 days in the presence of test substances. Cell proliferation was determined by staining the cells with crystal violet: the cells were fixed by adding 20 μl/measuring point of an 11% glutaric aldehyde solution for 15 minutes at room temperature. After three washing cycles of the fixed cells with water, the plates were dried at room temperature. The cells were stained by adding 100 μl/measuring point of a 0.1% crystal violet solution (pH 3.0). After three washing cycles of the stained cells with water, the plates were dried at room temperature. The dye was dissolved by adding 100 μl/measuring point of a 10% acetic acid solution. Absorbtion was determined by photometry at a wavelength of 595 nm. The change of cell number, in percent, was calculated by normalization of the measured values to the aborbtion values of the zero-point plate (=0%) and the absorbtion of the untreated (0 μm) cells (=100%). The IC50 values were determined by means of a 4 parameter fit.

[2] = tested on: B16F10; experiment: Proliferation assay (crystal violet), B16F10; conditions: Mus musculus, B16-F10, 96 h; B16F10 cells; 4 days incubation; crystal violet staining; read-out: IC50 inhibition of proliferation, B16F10
Method: as §1

[3] = tested on: human cervical tumor cell line HeLa (ATCC CCL-2); experiment: SAC-Formation - Nocodazole-Induced Assay; conditions: Homo sapiens, HeLa, 24 h, HeLa cells, nocodazole 0.1 μg/ml together with test compound, decrease of mitotic cells (phospho-histone H3 Ser10)
Procedure, shortened: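 HeLa cells, plated overnight, were treated 24 h at 37 °C with nocodazole (0.1 μg/ml final) plus test compound (0.005–20 μM, 0.5% DMSO) added at the same time. After fixation, anti-phospho-histone H3 Ser10 and Hoechst staining gave the mitotic cell fraction by imaging. Values came from four-parameter Hill fits.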

[4] = tested on: Caco-2; experiment: Proliferation assay (crystal violet), Caco-2; conditions: Homo sapiens, 96 h; Caco-2 cells; 4 days incubation; crystal violet staining; read-out: IC50 inhibition of proliferation, Caco2
Method: as §1

[5] = tested on: NCI-H460; experiment: Proliferation assay (crystal violet), NCI-H460; conditions: Homo sapiens, 96 h; NCI-H460 cells; 4 days incubation; crystal violet staining; read-out: IC50 inhibition of proliferation, NCI-H460
Method: as §1

[6] = tested on: DU145; experiment: Proliferation assay (crystal violet), DU145; conditions: Homo sapiens, DU-145, 96 h; DU145 cells; 4 days incubation; crystal violet staining; read-out: IC50 inhibition of proliferation, DU145
Method: as §1

Structure (SMILES)	IC50 [3]	other results
Cc1nsc(Nc2ccc(C#N)cn2)c1C(=O)Nc1ccc(OC2CCN(C(=O)OC(C)(C)C)CC2)nc1 [Example 27, tert-Butyl 4-({5-[({5-[(5-cyanopyridin-2-yl)amino]-3-methyl-1,2-thiazol-4-yl}-carbonyl)amino]pyridin-2-yl}oxy)piperidine-1-carboxylate]	150 nM	IC50 [1]: 250 nM; IC50 [2]: 610 nM; IC50 [4]: 410 nM; IC50 [5]: 280 nM; IC50 [6]: 680 nM
CCNC(=O)c1cccc(NC(=O)c2c(C)nsc2Nc2ccc(C#N)cn2)c1 [Example 252, 5-[(5-cyanopyridin-2-yl)amino]-N-[3-(ethylcarbamoyl)phenyl]-3-methyl-1,2-thiazole-4-carboxamide]	530 nM	
Cc1nsc(Nc2cnc(C(F)(F)F)cn2)c1C(=O)Nc1ccc(F)c(OCC2CCN(CC(F)F)C2)c1 (centres unmarked) [Example 316, N-(3-{[1-(2,2-difluoroethyl)pyrrolidin-3-yl]methoxy}-4-fluorophenyl)-3-methyl-5-{[5-(trifluoromethyl)pyrazin-2-yl]amino}-1,2-thiazole-4-carboxamide]	28 nM	
Cc1nsc(Nc2ccc(C#N)cn2)c1C(=O)Nc1cccc(C(=O)NC2CC2)c1 [Example 250, 5-[(5-cyanopyridin-2-yl)amino]-N-[3-(cyclopropylcarbamoyl)phenyl]-3-methyl-1,2-thiazole-4-carboxamide]	790 nM	
Cc1nsc(Nc2cncc(C(F)(F)F)n2)c1C(=O)Nc1ccc(F)c(OC2CCN(CCF)CC2)c1 [Example 269, N-(4-fluoro-3-{[1-(2-fluoroethyl)piperidin-4-yl]oxy}phenyl)-3-methyl-5-{[6-(trifluoromethyl)pyrazin-2-yl]amino}-1,2-thiazole-4-carboxamide]	120 nM	
Cc1nsc(Nc2cncc(C(F)(F)F)n2)c1C(=O)Nc1ccc(F)c(OC2CCN(CC(F)F)CC2)c1 [Example 268, N-(3-{[1-(2,2-difluoroethyl)piperidin-4-yl]oxy}-4-fluorophenyl)-3-methyl-5-{[6-(trifluoromethyl)pyrazin-2-yl]amino}-1,2-thiazole-4-carboxamide]	38 nM	

Further compounds by falling IC50 [3], results first:

IC50 [3]	Structure (SMILES)	other results
20000 nM	Cc1nsc(Nc2cc(C#N)ccn2)c1C(=O)Nc1ccc(OC2CCNCC2)nc1 [Example 24, 5-[(4-Cyanopyridin-2-yl)amino]-3-methyl-N-[6-(piperidin-4-yloxy)pyridin-3-yl]-1,2-thiazole-4-carboxamide]	
4100 nM	Cc1nsc(Nc2cnc3ccccc3n2)c1C(=O)Nc1cccc(NS(=O)(=O)C2CN(CC(F)F)C2)c1 [Example 286, N-[3-({[1-(2,2-difluoroethyl)azetidin-3-yl]sulfonyl}amino)phenyl]-3-methyl-5-(quinoxalin-2-ylamino)-1,2-thiazole-4-carboxamide]	
670 nM	Cc1nsc(Nc2cncc(C(F)(F)F)n2)c1C(=O)Nc1ccc(C(=O)NC2CN(CC(F)(F)F)C2)cc1 [Example 280, 3-methyl-N-(4-{[1-(2,2,2-trifluoroethyl)azetidin-3-yl]carbamoyl}phenyl)-5-{[6-(trifluoromethyl)pyrazin-2-yl]amino}-1,2-thiazole-4-carboxamide]	
61 nM	Cc1nsc(Nc2cnc3ccccc3n2)c1C(=O)Nc1ccc(OC2CCN(CC(F)(F)F)CC2)nc1 [Example 21, 3-Methyl-5-(quinoxalin-2-ylamino)-N-(6-{[1-(2,2,2-trifluoroethyl)piperidin-4-yl]oxy}-pyridin-3-yl)-1,2-thiazole-4-carboxamide]	IC50 [1]: 880 nM; IC50 [2]: 1400 nM; IC50 [4]: 1400 nM; IC50 [5]: 750 nM; IC50 [6]: 1900 nM
